# Reference: patent US20110053773A1, “METHODS OF IMPROVING NUTRITIONAL VALUE OF PLANTS” (UNIVERSITY OF TENNESSEE RESEARCH FOUNDATION, priority 2009, published 2011)
# How the values were obtained:
# Format in all cases: in vivo
# [1] = test system: kale 'Red Russian'; test: Content analysis of kale: protein, amino acids, fiber, fatty acids, minerals (Example 4, Tables 12-14); settings: 28 DA-A
# In short: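 Greenhouse postemergence applications of chlorpyrifos, chlorothalonil, mepiquat-chloride, paclobutrazol, napthalic anhydride or isoxadifen-ethyl. Visual injury (phytotoxicity, chlorosis, stunting) scored 0–100%, 0 = no response, 100 = plant death. Harvest about 4 weeks after treatment; replicates pooled for protein, mineral, amino acid, fiber and fatty acid analysis.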
# [2] = test system: basil 'Genovese'; test: Content analysis of basil: protein, minerals (Example 4, Tables 10-11); settings: 28 DA-A
# In short: (§1)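 Plants were harvested about 4 weeks post-treatment and pooled across replicates to analyse protein, amino acids, fiber, fatty acids and minerals (Na, Ca, P, Mg, K, Fe, Mn, Zn, Cu). Treatments were postemergence insecticide, fungicide, PGRs and safeners. Visual injury scored 0–100% (phytotoxicity, chlorosis, stunting).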
# [3] = test system: basil ‘Genovese’; test: Yield, fresh weight of basil after insecticide, fungicide, PGRs and safeners (Example 4, Table 10); settings: DA-A, check 31.8
# In short: as §1
# [4] = test system: kale ‘Red Russian’; test: Yield, fresh weight of kale after insecticide, fungicide and PGRs (Example 4, Table 12); settings: 28 DA-A, Untreated Check 106.9
# In short: as §1
# [5] = rates g ai/ha: chlropyrifos 1120, chlorothalonil 2630, paclobutrazol 3.23, mepiquat-chloride 12.3, + NIS 0.25 % v/v
# [6] = rates g ai/ha: chlropyrifos 3370, chlorothalonil 7900, paclobutrazol 9.7, mepiquat-chloride 37, + NIS 0.25 % v/v
# [7] = second-listed rate g ai/ha: chlropyrifos ###, chlorothalonil ###, paclobutrazol 9.7, mepiquat-chloride 37, + NIS 0.3 % v/v
# [8] = rates g ai/ha: chlroprifos 3370, chlorothalonil 7900, paclobutrazol 9.7, mepiquat-chloride 37, Isoxadifen 16, Napthalic anhydride 527, + NIS 0.25 % v/v
# [9] = rates g ai/ha: chlropyrifos 1120, chlorothalonil 2630, paclobutrazol 3.23, mepiquat-chloride 12.3, Isoxadifen 8, Napthalic anhydride 264, + NIS 0.25 % v/v
compound,measurement,setting,value
N#Cc1c(Cl)c(Cl)c(Cl)c(C#N)c1Cl [chlorothalonil],"Potassium, Percent Increase Over the Untreated Check (on a % dry matter basis)",[1]; [5],−9 % check
same,"Sodium, Percent Increase Over the Untreated Check (on a % dry matter basis)",[1]; [5],4 % check
same,"Zinc, Percent Increase Over the Untreated Check (on a % dry matter basis)",[1]; [5],−4 % check
same,"ADF, Percent Increase Over the Untreated Check (on a % dry matter basis)",[1]; [6],0 % check
same,"Calcium, Percent Increase Over the Untreated Check (on a % dry matter basis)",[1]; [6],−1 % check
same,"Copper, Percent Increase Over the Untreated Check (on a % dry matter basis)",[1]; [6],6 % check
same,"Iron, Percent Increase Over the Untreated Check (on a % dry matter basis)",[1]; [6],−3 % check
same,"Magnesium, Percent Increase Over the Untreated Check (on a % dry matter basis)",[1]; [6],−3 % check
same,"Manganese, Percent Increase Over the Untreated Check (on a % dry matter basis)",[1]; [6],4 % check
same,"NDF, Percent Increase Over the Untreated Check (on a % dry matter basis)",[1]; [6],−5 % check
same,"Phosphorous, Percent Increase Over the Untreated Check (on a % dry matter basis)",[1]; [6],−3 % check
same,"Potassium, Percent Increase Over the Untreated Check (on a % dry matter basis)",[1]; [6],−3 % check
same,"Sodium, Percent Increase Over the Untreated Check (on a % dry matter basis)",[1]; [6],23 % check
same,"Zinc, Percent Increase Over the Untreated Check (on a % dry matter basis)",[1]; [6],−3 % check
same,"Alanine, Percent Increase over the Untreated Check (on a % dry matter basis)",[1]; [7],−5 % check
same,"Aspartic acid, Percent Increase over the Untreated Check (on a % dry matter basis)",[1]; [7],−4 % check
same,"Cysteine, Percent Increase over the Untreated Check (on a % dry matter basis)",[1]; [7],−6 % check
same,"Glutamic acid, Percent Increase over the Untreated Check (on a % dry matter basis)",[1]; [7],−5 % check
same,"Glycine, Percent Increase over the Untreated Check (on a % dry matter basis)",[1]; [7],−7 % check
same,"Iso-leucine, Percent Increase over the Untreated Check (on a % dry matter basis)",[1]; [7],−2 % check
same,"Leucine, Percent Increase over the Untreated Check (on a % dry matter basis)",[1]; [7],−1 % check
same,"Lysine, Percent Increase over the Untreated Check (on a % dry matter basis)",[1]; [7],−3 % check
same,"Methionine, Percent Increase over the Untreated Check (on a % dry matter basis)",[1]; [7],−2 % check
same,"Proline, Percent Increase over the Untreated Check (on a % dry matter basis)",[1]; [7],−3 % check
same,"Threonine, Percent Increase over the Untreated Check (on a % dry matter basis)",[1]; [7],−1 % check
same,"Total Amino acids, Percent Increase over the Untreated Check (on a % dry matter basis)",[1]; [7],−4 % check
same,"Total Protein, Percent Increase over the Untreated Check (on a % dry matter basis)",[1]; [7],−3 % check
same,"Valine, Percent Increase over the Untreated Check (on a % dry matter basis)",[1]; [7],−3 % check
same,"ADF, Percent Increase Over the Untreated Check (on a % dry matter basis)",[2]; [8],1 % check
same,"Calcium, Percent Increase Over the Untreated Check (on a % dry matter basis)",[2]; [8],−15 % check
same,"Copper, Percent Increase Over the Untreated Check (on a % dry matter basis)",[2]; [8],−17 % check
same,"Iron, Percent Increase Over the Untreated Check (on a % dry matter basis)",[2]; [8],25 % check
same,"Magnesium, Percent Increase Over the Untreated Check (on a % dry matter basis)",[2]; [8],−6 % check
same,"Manganese, Percent Increase Over the Untreated Check (on a % dry matter basis)",[2]; [8],−8 % check
same,"NDF, Percent Increase Over the Untreated Check (on a % dry matter basis)",[2]; [8],12 % check
same,"Phosphorous, Percent Increase Over the Untreated Check (on a % dry matter basis)",[2]; [8],0 % check
same,"Potassium, Percent Increase Over the Untreated Check (on a % dry matter basis)",[2]; [8],7 % check
same,"Protein, Percent Increase Over the Untreated Check (on a % dry matter basis)",[2]; [8],3 % check
same,"Sodium, Percent Increase Over the Untreated Check (on a % dry matter basis)",[2]; [8],50 % check
same,"Soluble protein, Percent Increase Over the Untreated Check (on a % dry matter basis)",[2]; [8],42 % check
same,"Zinc, Percent Increase Over the Untreated Check (on a % dry matter basis)",[2]; [8],−6 % check
same,"ADF, Percent Increase Over the Untreated Check (on a % dry matter basis)",[2]; [9],1 % check
same,"Calcium, Percent Increase Over the Untreated Check (on a % dry matter basis)",[2]; [9],0 % check
same,"Copper, Percent Increase Over the Untreated Check (on a % dry matter basis)",[2]; [9],−17 % check
same,"Iron, Percent Increase Over the Untreated Check (on a % dry matter basis)",[2]; [9],37 % check
same,"Magnesium, Percent Increase Over the Untreated Check (on a % dry matter basis)",[2]; [9],3 % check
same,"Manganese, Percent Increase Over the Untreated Check (on a % dry matter basis)",[2]; [9],43 % check
same,"NDF, Percent Increase Over the Untreated Check (on a % dry matter basis)",[2]; [9],6 % check
same,"Phosphorous, Percent Increase Over the Untreated Check (on a % dry matter basis)",[2]; [9],9 % check
same,"Potassium, Percent Increase Over the Untreated Check (on a % dry matter basis)",[2]; [9],4 % check
same,"Protein, Percent Increase Over the Untreated Check (on a % dry matter basis)",[2]; [9],3 % check
same,"Sodium, Percent Increase Over the Untreated Check (on a % dry matter basis)",[2]; [9],8 % check
same,"Soluble protein, Percent Increase Over the Untreated Check (on a % dry matter basis)",[2]; [9],223 % check
same,"Zinc, Percent Increase Over the Untreated Check (on a % dry matter basis)",[2]; [9],38 % check
same,Yield Fresh weight,[3]; [9],27.5 grams
same,Yield Fresh weight,"[3]; rates g ai/ha: chlropyrifos 3370, chlorothalonil 7900, paclobutrazol 9.7, mepiquat-chloride 37, Isoxadifen 16, Napthalic anhydride 527, + NIS 0.25 % v/v",25.9 grams
same,Yield Fresh weight,[4]; [5],102.5 grams
same,Yield Fresh weight,[4]; [6],107.5 grams
